In brackets after ≈: the same amount, converted by molar mass. Activity calls are given as the source filed them. No cut-off for these calls is given here.
Tests used:
[1] = tested on: Mycobacterium tuberculosis; assay: Antitubercular activity against Mycobacterium tuberculosis H37Rv ATCC 25618 under aerobic condition after 5 days; format: functional; conditions: H37Rv ATCC 25618, 120 h
[2] = Cytotoxicity against African green monkey Vero cells after 2 days by luminescent assay; format: cell-based; conditions: chlorocebus sabaeus, read-out: TC50
[3] = Selectivity index, ratio of TC50 for African green monkey Vero cells to MIC for Mycobacterium tuberculosis H37Rv ATCC 25618
[4] = tested on: Mycobacterium tuberculosis; assay: Bactericidal activity against replicating Mycobacterium tuberculosis at 1 to 10 times MIC after 21 days; format: functional, organism-based
[5] = tested on: Mycobacterium tuberculosis; assay: Antitubercular activity against Mycobacterium tuberculosis after 21 to 28 days by serial proportion method; format: functional
[6] = tested on: Mycolicibacterium smegmatis; assay: Antimicrobial activity against Mycobacterium smegmatis MC2 155 after 5 to 7 days by serial proportion method; format: functional; conditions: str. MC2 155
Escherichia coli = assay: Antimicrobial activity against Escherichia coli after 1 day by serial proportion method; format: functional; conditions: 24 h
Staphylococcus aureus = assay: Antimicrobial activity against Staphylococcus aureus after 2 days by serial proportion method; format: functional; conditions: 48 h
MDCK = assay: Passive permeability of the compound from apical to basolateral direction in MDCK cells at 10 uM in presence of P-gp inhibitor; format: ADME, cell-based, Canis lupus familiaris; conditions: dog
[7] = Metabolic stability of the compound in mouse liver microsomes assessed as compound turnover at 2 uM after 30 mins by LC-MS analysis; format: ADME; conditions: read-out: Drug metabolism
[8] = Metabolic stability of the compound in rat liver microsomes assessed as compound turnover at 2 uM after 30 mins by LC-MS analysis; format: ADME; conditions: read-out: Drug metabolism
[9] = Metabolic stability of the compound in human liver microsomes assessed as compound turnover at 2 uM after 30 mins by LC-MS analysis; format: ADME; conditions: read-out: Drug metabolism
[10] = Thermodynamic equilibrium solubility of the compound using 10 mM DMSO at pH 2; format: physicochemical; conditions: buffer, read-out: Therm_solubility
[11] = Thermodynamic equilibrium solubility of the compound using 10 mM DMSO at pH 6; format: physicochemical; conditions: buffer, read-out: Therm_solubility
[12] = Thermodynamic equilibrium solubility of the compound using 10 mM DMSO at pH 7.4; format: physicochemical; conditions: buffer, read-out: Therm_solubility
[13] = Fraction unbound in mouse plasma after 4.5 hrs by LC-MS/MS analysis; format: ADME, cell-free

Row | SMILES | MIC [1] [µM] | CC50 at 48 h [2] [µM] | Ratio [3] | further results
1 | CCc1nc2ccccc2n1CCCCOc1ccnc2ccccc12 | > 20 | > 50 |  | 
2 | CCc1nc2ccc(C)cc2n1CCCCNc1ccccc1 | 0.32 (≈ 0.0984 µg/mL) | 21 | 66 | 
3 | CCc1nc2ccccc2n1CCCCOc1c(Cl)cccc1Cl | 20 (≈ 7.27 µg/mL) | 13 | 1.5 | 
4 | CCc1nc2ccc(C)cc2n1CCCOc1ccc(C)c(Cl)c1 | 0.22 (≈ 0.0754 µg/mL) | 17 | 77 | Activity [4]: inactive
5 | CCc1nc2ccccc2n1CCCCOc1cc(C)c(CN2CCOCC2)cc1C | 1.3 (≈ 0.548 µg/mL) | 48 | 15 | 
6 | CCc1nc2ccccc2n1CCCCOc1ccc(N2CCOCC2)cc1 | > 20 | 32 |  | 
7 | CCc1nc2ccc(OC)cc2n1CCCCOc1ccccc1 | 0.9 (≈ 0.292 µg/mL) | 27 | 30 | 
8 | CCc1nc2cnccc2n1CCCCOc1ccccc1 | > 20 |  |  | 
9 | CCc1nc2ccccc2n1CCOc1ccccc1 | > 20 |  |  | 
10 | CCc1nc2ccccc2n1CCCCOc1ccccc1C(C)C | 20 (≈ 6.73 µg/mL) | 19 | 0.7 | 
11 | CCc1nc2ccccc2n1CCCCSc1ccccc1 | 1.4 (≈ 0.435 µg/mL) | 31 | 22 | MIC99 [5]: 10 µM (≈ 3.1 µg/mL); MIC99 [6]: > 100 µM; MIC99 (Escherichia coli): > 100 µM; MIC99 (Staphylococcus aureus): > 100 µM
12 | CN1CCN(c2nc3ccccc3n2CCCCOc2ccccc2)CC1 | > 20 |  |  | 
13 | CCc1nc2ccccc2n1CCCCOc1ccc(Cl)cc1F | 1.5 (≈ 0.52 µg/mL) | 5.7 | 3.8 | 
14 | CCc1nc2ccccc2n1CCCCOc1ccc(C#N)cc1 | 16 (≈ 5.11 µg/mL) | 27 | 1.7 | 
15 | Cc1ccc2nc(C(C)O)n(CCCCOc3ccccc3)c2c1 (centres undefined) | 20 (≈ 6.49 µg/mL) |  |  | 
16 | CCc1nc2ccc(C)cc2n1CCCOc1ccc(C)cc1 | 0.27 (≈ 0.0833 µg/mL) | 15 | 56 | 
17 | Clc1nc2ccccc2n1CCCCOc1ccccc1 | > 20 |  |  | 
18 | Cc1ccc2nc(C(C)O)n(CCCCOc3ccc(C)c(Cl)c3)c2c1 (centres undefined) | 11 (≈ 4.1 µg/mL) | 8.6 | 0.8 | 
19 | CCc1nc2ccccc2n1CCCCOc1ccccc1 | 1.1 (≈ 0.324 µg/mL) | 21 | 19 | MIC99 [5]: 5 µM (≈ 1.47 µg/mL); MIC99 [6]: > 100 µM; MIC99 (Escherichia coli): > 100 µM; MIC99 (Staphylococcus aureus): > 100 µM
20 | CCc1nc2ccc(C#N)cc2n1CCCCOc1ccccc1 | > 20 | > 20 | >20 | 
21 | CCc1nc2ccccc2n1CCCCOc1ccc(C)c(Cl)c1 | 0.23 (≈ 0.0789 µg/mL) | 14 | 61 | 
22 | CCc1nc2ccccc2n1CCCCOc1cccc(Cl)c1 | 0.88 (≈ 0.289 µg/mL) | 22 | 25 | 
23 | CCc1cc2ccccc2n1CCCCOc1ccc(C)c(Cl)c1 | > 20 |  |  | 

Row | SMILES | MIC [1] [µM] | CC50 at 48 h [2] [µM] | Ratio [3] | further results
24 | CCc1nc2ccc(C)cc2n1CCCSc1ccc(C)cc1 | 3.3 (≈ 1.07 µg/mL) | 12 | 3.6 | 
25 | CCc1nc2ccc(Cl)cc2n1CCCCOc1ccccc1 | 7.1 (≈ 2.33 µg/mL) | 25 | 3.5 | 
26 | CCc1nc2ccccc2n1CCCCOc1ccncc1 | > 20 | > 50 |  | 
27 | Cc1nc2ccccc2n1CCOc1ccc(Cl)cc1 | > 20 |  |  | 
28 | c1ccc(OCCCCn2ncc3ccccc32)cc1 | > 20 | > 50 |  | 
29 | CCc1cc2ccccc2n1CCCCNc1ccc(C)c(Br)c1 | > 20 |  |  | 
30 | CCc1nc2ccccc2n1CCCCOc1cccnc1 | > 20 | > 50 |  | 
31 | CCc1nc2ccccc2n1CCCCOc1ccccc1C | 0.32 (≈ 0.0987 µg/mL) | 16 | 50 | 
32 | Nc1nc2ccccc2n1CCCCOc1ccccc1 | > 20 |  |  | 
33 | c1ccc(OCCCCn2cnc3ccccc32)cc1 | > 20 |  |  | 
34 | CCc1nc2ccccc2n1CCCCOc1ccc(OC)cc1 | 1.2 (≈ 0.389 µg/mL) | 21 | 27 | 
35 | CCc1nc2cnc(C)cc2n1CCCCOc1ccccc1 | 1.5 (≈ 0.464 µg/mL) | 71 | 47 | 
36 | CC(=O)Nc1nc2ccc(C)cc2n1CCCCOc1ccc(C)c(Cl)c1 | 11 (≈ 4.24 µg/mL) | 8.3 | 0.8 | 
37 | CCc1nc2ccc(C)cc2n1CCCCNc1ccc(C)cc1C | 0.31 (≈ 0.104 µg/mL) | 20 | 65 | 
38 | CCc1nc2ccc(C)cc2n1CCCCNc1ccc(C)cc1 | 0.15 (≈ 0.0482 µg/mL) | 20 | 133 | 
39 | CCc1nc2ccccc2n1CCOc1ccc(Cl)cc1 | > 20 |  |  | 
40 | CCc1nc2cc(Cl)ccc2n1CCCCOc1ccccc1 | 0.3 (≈ 0.0987 µg/mL) | 16 | 53 | permeability (MDCK): 3.6%; metabolised at 0.5 h, 2 µM [7]: 99.8%; metabolised at 0.5 h, 2 µM [8]: 99.7%; metabolised at 0.5 h, 2 µM [9]: 98.5%; solubility thermodynamic [10]: 670 µg/mL (≈ 2040 µM); solubility thermodynamic [11]: < 1 µg/mL; solubility thermodynamic [12]: < 1 µg/mL; fraction unbound at 4.5 h [13]: 0.004
41 | CCc1nc2ccccc2n1CCCCOc1ccc(Cl)cc1C | 1.5 (≈ 0.514 µg/mL) | 20 | 2.3 | 
42 | c1ccc(OCCCCn2c(-c3ccccc3)nc3ccccc32)cc1 | 16 (≈ 5.48 µg/mL) | 19 | 1.2 | 
43 | CCc1nc2ccccc2n1CC1COc2ccccc2O1 (centres undefined) | > 20 |  |  | 
44 | CCc1nc2ccccc2n1CCCCOCc1ccccc1 | 3.6 (≈ 1.11 µg/mL) | 32 | 8.9 | 
45 | FC(F)(F)c1nc2ccccc2n1CCCCOc1ccccc1 | > 20 |  |  | 
46 | CCc1nc2ccc(C)cc2n1CCCCNc1ccc(C)c(Br)c1 | 0.11 (≈ 0.044 µg/mL) | 12 | 109 | 

Row | SMILES | MIC [1] [µM] | CC50 at 48 h [2] [µM] | Ratio [3] | further results
47 | CCc1nc2ccccc2n1CCCCOc1ccc(Cl)cc1 | 1.5 (≈ 0.493 µg/mL) | 14 | 9.3 | 
48 | CCc1nc2ccccc2n1CCCCOc1cc(C)c(Cl)c([N+](=O)[O-])c1 | 7.9 (≈ 3.06 µg/mL) | 18 | 19 | 
49 | c1ccc(OCCCCn2c(N3CCOCC3)nc3ccccc32)cc1 | 20 (≈ 7.03 µg/mL) | 20 | 20 | 
50 | CCc1nc2ccc(C)cc2n1CCCNc1ccc(Br)c(C)c1 | 0.052 (≈ 0.0201 µg/mL) | 27 | 523 | Activity [4]: inactive
51 | CCc1nc2ccccc2n1CCCCOc1ccc(Cl)c(F)c1 | 1.6 (≈ 0.555 µg/mL) | 16 | 10 | 
52 | CCc1nc2ccccc2n1CCCCOc1ccccc1Cl | 0.68 (≈ 0.224 µg/mL) | 16 | 23 | 
53 | CCc1nc2ccncc2n1CCCCOc1ccccc1 | > 20 |  |  | 
54 | CCc1nc2ccccc2n1CCCCNc1ccccc1 | 0.47 (≈ 0.138 µg/mL) | 42 | 89 | permeability (MDCK): 21.5%; metabolised at 0.5 h, 2 µM [7]: 99.9%; metabolised at 0.5 h, 2 µM [8]: 99.9%; metabolised at 0.5 h, 2 µM [9]: 90.6%; solubility thermodynamic [10]: 610 µg/mL (≈ 2080 µM); solubility thermodynamic [11]: 10 µg/mL (≈ 34.1 µM); solubility thermodynamic [12]: < 1 µg/mL; fraction unbound at 4.5 h [13]: 0.045; Activity [4]: inactive
55 | CCc1nc2ccccc2n1CCCCOC | > 20 | > 50 |  | 
56 | CCc1nc2cc(Cl)cnc2n1CCCCOc1ccccc1 | 6.1 (≈ 2.01 µg/mL) | 38 | 6.2 | 
57 | Cc1nc2ccccc2n1CCCOc1ccccc1 | > 20 | > 50 |  | 
58 | CCc1nc2ccccc2n1CCCCOc1cccc(C)c1 | 0.42 (≈ 0.13 µg/mL) | 19 | 45 | 
59 | Cc1nc2ccccc2n1CCOc1ccccc1 | > 20 |  |  | 
60 | CCc1nc2cc(C#N)ccc2n1CCCCOc1ccccc1 | > 20 | > 20 | >20 | 
61 | CCc1nc2cc(OC)ccc2n1CCCCOc1ccccc1 | > 20 |  |  | 
62 | CCc1nc2ccccc2n1CCCCOc1ccc2sc(C)nc2c1 | 1.5 (≈ 0.548 µg/mL) | 21 | 14 | 
63 | CCc1nc2ccc(C)cc2n1CCCOc1ccc(C)c(C)c1 | 0.22 (≈ 0.0709 µg/mL) | 7.3 | 33 | 
64 | Cc1nc2ccccc2n1CCCCOc1ccccc1 | > 20 | > 50 |  | 
65 | CCc1nc2ccccc2n1CCCCOc1ccc(Cl)cc1Cl | 1.8 (≈ 0.654 µg/mL) | 23 | 13 | 
66 | CCc1cc2ccccc2n1CCCCSc1nnc(-c2ccc(Cl)cc2)o1 | > 20 | > 50 |  | 
67 | CCc1nc2ccccc2n1CCCCOc1ccc(C)cc1 | 0.15 (≈ 0.0463 µg/mL) | 14 | 93 | 
68 | CCc1nc2ccc(C)cc2n1CCCCOc1ccccc1 | 0.27 (≈ 0.0833 µg/mL) | 18 | 67 | metabolised at 0.5 h, 2 µM [7]: 99.9%; metabolised at 0.5 h, 2 µM [8]: 99.9%; metabolised at 0.5 h, 2 µM [9]: 98.9%; solubility thermodynamic [10]: 630 µg/mL (≈ 2040 µM); solubility thermodynamic [11]: 40 µg/mL (≈ 130 µM); solubility thermodynamic [12]: 10 µg/mL (≈ 32.4 µM)
69 | CCc1nc2ccccc2n1CCCCOc1ccc(C)c(C)c1 | 0.3 (≈ 0.0967 µg/mL) | 14 | 53 | 
